Data published in ChEMBL document CHEMBL1275587, “Emergence of ciprofloxacin-nonsusceptible Streptococcus pyogenes isolates from healthy children and pediatric patients in Portugal” (2010).
In brackets after ≈: the same amount, converted by molar mass.

Assays:
Format in all cases: functional
Streptococcus pyogenes [1] = assay: Antimicrobial activity against ciprofloxacin-nonsusceptible Streptococcus pyogenes isolates by agar dilution method
Streptococcus pyogenes [2] = assay: Antimicrobial activity against ciprofloxacin-nonsusceptible Streptococcus pyogenes isolates assessed as intermediate resistant isolates by agar dilution method
Streptococcus pyogenes [3] = assay: Antimicrobial activity against ciprofloxacin-nonsusceptible Streptococcus pyogenes isolates assessed as resistant isolates by agar dilution method
Streptococcus pyogenes [4] = assay: Antimicrobial activity against ciprofloxacin-nonsusceptible Streptococcus pyogenes isolates assessed as susceptible isolates by agar dilution method
Streptococcus pyogenes [5] = assay: Antimicrobial activity against ciprofloxacin-nonsusceptible, DX PFGE pattern, emm6 type Streptococcus pyogenes with ST382 sequence type, ParC S79A mutant isolated from oropharyngeal colonization
Streptococcus pyogenes [6] = assay: Antimicrobial activity against ciprofloxacin-nonsusceptible, K PFGE pattern, emm5 type Streptococcus pyogenes with ST99 sequence type, ParC D83G isolated from oropharyngeal colonization
Streptococcus pyogenes [7] = assay: Antimicrobial activity against ciprofloxacin-nonsusceptible, CJ PFGE pattern, emm89 type Streptococcus pyogenes with ST101 sequence type isolated from tonsillitis/pharyngitis
Streptococcus pyogenes [8] = assay: Antimicrobial activity against ciprofloxacin-nonsusceptible, AD PFGE pattern, […] sequence type, ParC S79A mutant isolated from oropharyngeal colonization
Streptococcus pyogenes [9] = assay: Antimicrobial activity against ciprofloxacin-nonsusceptible, DY PFGE pattern, emm6 type Streptococcus pyogenes with ST382 sequence type, ParC S79A mutant isolated from oropharyngeal colonization
Streptococcus pyogenes [10] = assay: Antimicrobial activity against ciprofloxacin-nonsusceptible, AD PFGE pattern, […] sequence type, ParC S79A mutant isolated from oropharyngeal colonization and onsillitis/pharyngitis
Streptococcus pyogenes [11] = assay: Antimicrobial activity against ciprofloxacin-nonsusceptible, AM PFGE pattern, emm6 type Streptococcus pyogenes with ST382 sequence type, ParC S79A mutant isolated from oropharyngeal colonization
Streptococcus pyogenes [12] = assay: Antimicrobial activity against ciprofloxacin-nonsusceptible, BT PFGE pattern, emm28 type Streptococcus pyogenes with ST52 sequence type, ParC D83G mutant isolated from skin/soft tissue infection
Streptococcus pyogenes [13] = assay: Antimicrobial activity against ciprofloxacin-nonsusceptible, AD PFGE pattern, emm6 type Streptococcus pyogenes with ST382 sequence type, ParC S79A mutant isolated from oropharyngeal colonization, tonsillitis/pharyngitis and skin/soft tissue infection

Structure (SMILES): CN(C)c1cc(NC(=O)CNC(C)(C)C)c(O)c2c1C[C@H]1C[C@H]3[C@H](N(C)C)C(O)=C(C(N)=O)C(=O)[C@@]3(O)C(O)=C1C2=O [TIGECYCLINE]
- MIC (Streptococcus pyogenes [1]): 0.025 µg/mL (≈ 0.0427 µM)

Structure (SMILES): CN[C@H](CC(C)C)C(=O)N[C@H]1C(=O)N[C@@H](CC(N)=O)C(=O)N[C@H]2C(=O)N[C@H]3C(=O)N[C@H](C(=O)N[C@H](C(=O)O)c4cc(O)cc(O)c4-c4cc3ccc4O)[C@H](O)c3ccc(c(Cl)c3)Oc3cc2cc(c3O[C@@H]2O[C@H](CO)[C@@H](O)[C@H](O)[C@H]2O[C@H]2C[C@](C)(N)[C@H](O)[C@H](C)O2)Oc2ccc(cc2Cl)[C@H]1O [VANCOMYCIN]
- Activity (Streptococcus pyogenes [2]): 0%
- MIC (Streptococcus pyogenes [1]): ≤ 0.25 µg/mL
- MIC50 (Streptococcus pyogenes [1]): 0.5 µg/mL (≈ 0.345 µM)
- MIC90 (Streptococcus pyogenes [1]): 0.5 µg/mL (≈ 0.345 µM)
- Activity (Streptococcus pyogenes [3]): 0%
- Activity (Streptococcus pyogenes [4]): 100%

Structure (SMILES): COc1c(N2C[C@@H]3CCCN[C@@H]3C2)c(F)cc2c(=O)c(C(=O)O)cn(C3CC3)c12 [MOXIFLOXACIN]
- MIC (Streptococcus pyogenes [5]): 0.5 µg/mL (≈ 1.25 µM)
- MIC (Streptococcus pyogenes [6]): 0.5 µg/mL (≈ 1.25 µM)
- MIC (Streptococcus pyogenes [7]): 0.5 µg/mL (≈ 1.25 µM)
- MIC (Streptococcus pyogenes [8]): 1 µg/mL (≈ 2.49 µM)
- MIC (Streptococcus pyogenes [1]): ≤ 0.25 µg/mL
- MIC50 (Streptococcus pyogenes [1]): 0.5 µg/mL (≈ 1.25 µM)
- MIC90 (Streptococcus pyogenes [1]): 0.5 µg/mL (≈ 1.25 µM)
- MIC (Streptococcus pyogenes [9]): 0.5 µg/mL (≈ 1.25 µM)
- MIC (Streptococcus pyogenes [10]): 0.5 µg/mL (≈ 1.25 µM)
- MIC (Streptococcus pyogenes [11]): 0.5 µg/mL (≈ 1.25 µM)

Structure (SMILES): CO/N=C(\C(=O)N[C@@H]1C(=O)N2C(C(=O)O)=C(COC(C)=O)CS[C@H]12)c1csc(N)n1 [CEFOTAXIME]
- Activity (Streptococcus pyogenes [2]): 0%
- MIC (Streptococcus pyogenes [1]): ≤ 0.06 µg/mL
- MIC50 (Streptococcus pyogenes [1]): ≤ 0.06 µg/mL
- MIC90 (Streptococcus pyogenes [1]): ≤ 0.06 µg/mL
- Activity (Streptococcus pyogenes [3]): 0%
- Activity (Streptococcus pyogenes [4]): 100%

Structure (SMILES): C[C@H]1COc2c(N3CCN(C)CC3)c(F)cc3c(=O)c(C(=O)O)cn1c23.C[C@H]1COc2c(N3CCN(C)CC3)c(F)cc3c(=O)c(C(=O)O)cn1c23.O [LEVOFLOXACIN]
- MIC (Streptococcus pyogenes [5]): 2 µg/mL
- Activity (Streptococcus pyogenes [2]): 7.6%
- MIC (Streptococcus pyogenes [6]): 2 µg/mL
- MIC (Streptococcus pyogenes [12]): 2 µg/mL
- MIC (Streptococcus pyogenes [7]): 2 µg/mL
- MIC (Streptococcus pyogenes [8]): 4 µg/mL
- MIC (Streptococcus pyogenes [1]): 2 µg/mL
- MIC50 (Streptococcus pyogenes [1]): 2 µg/mL
- MIC90 (Streptococcus pyogenes [1]): 2 µg/mL
- MIC (Streptococcus pyogenes [13]): 2 µg/mL
- MIC (Streptococcus pyogenes [9]): 2 µg/mL
- Activity (Streptococcus pyogenes [3]): 0%
- Activity (Streptococcus pyogenes [4]): 92.4%
- MIC (Streptococcus pyogenes [10]): 2 µg/mL
- MIC (Streptococcus pyogenes [11]): 2 µg/mL

Structure (SMILES): O=C(O)c1cn(C2CC2)c2cc(N3CCNCC3)c(F)cc2c1=O [CIPROFLOXACIN]
- MIC (Streptococcus pyogenes [5]): 2 µg/mL (≈ 6.04 µM)
- MIC (Streptococcus pyogenes [6]): 2 µg/mL (≈ 6.04 µM)
- MIC (Streptococcus pyogenes [12]): 2 µg/mL (≈ 6.04 µM)
- MIC (Streptococcus pyogenes [7]): 2 µg/mL (≈ 6.04 µM)
- MIC (Streptococcus pyogenes [8]): 4 µg/mL (≈ 12.1 µM)
- MIC (Streptococcus pyogenes [1]): 2 µg/mL (≈ 6.04 µM)
- MIC (Streptococcus pyogenes [13]): 2 µg/mL (≈ 6.04 µM)
- MIC (Streptococcus pyogenes [9]): 4 µg/mL (≈ 12.1 µM)
- MIC (Streptococcus pyogenes [10]): 2 µg/mL (≈ 6.04 µM)
- MIC (Streptococcus pyogenes [11]): 2 µg/mL (≈ 6.04 µM)

Structure (SMILES): CCC[C@@H]1C[C@@H](C(=O)N[C@@H]([C@H]2O[C@H](SC)[C@H](O)[C@@H](O)[C@H]2O)[C@H](C)Cl)N(C)C1 [CLINDAMYCIN]
- Activity (Streptococcus pyogenes [2]): 0%
- MIC (Streptococcus pyogenes [1]): ≤ 0.25 µg/mL
- MIC50 (Streptococcus pyogenes [1]): ≤ 0.25 µg/mL
- MIC90 (Streptococcus pyogenes [1]): ≤ 0.25 µg/mL
- Activity (Streptococcus pyogenes [3]): 1.5%
- Activity (Streptococcus pyogenes [4]): 98.5%

Structure (SMILES): CC1(C)S[C@@H]2[C@H](NC(=O)Cc3ccccc3)C(=O)N2[C@H]1C(=O)O [PENICILLIN G]
- Activity (Streptococcus pyogenes [2]): 0%
- MIC (Streptococcus pyogenes [1]): ≤ 0.03 µg/mL
- MIC50 (Streptococcus pyogenes [1]): ≤ 0.03 µg/mL
- MIC90 (Streptococcus pyogenes [1]): ≤ 0.03 µg/mL
- Activity (Streptococcus pyogenes [3]): 0%
- Activity (Streptococcus pyogenes [4]): 100%

Structure (SMILES): CC[C@H]1OC(=O)[C@H](C)[C@@H](O[C@H]2C[C@@](C)(OC)[C@@H](O)[C@H](C)O2)[C@H](C)[C@@H](O[C@@H]2O[C@H](C)C[C@H](N(C)C)[C@H]2O)[C@](C)(O)C[C@@H](C)C(=O)[C@H](C)[C@@H](O)[C@]1(C)O [ERYTHROMYCIN]
- Activity (Streptococcus pyogenes [2]): 0%
- MIC (Streptococcus pyogenes [1]): ≤ 0.25 µg/mL
- MIC50 (Streptococcus pyogenes [1]): ≤ 0.25 µg/mL
- MIC90 (Streptococcus pyogenes [1]): ≤ 0.25 µg/mL
- Activity (Streptococcus pyogenes [3]): 1.5%
- Activity (Streptococcus pyogenes [4]): 98.5%

Structure (SMILES): CC1(C)S[C@@H]2[C@H](NC(=O)[C@H](N)c3ccccc3)C(=O)N2[C@H]1C(=O)O [AMPICILLIN]
- Activity (Streptococcus pyogenes [2]): 0%
- MIC (Streptococcus pyogenes [1]): ≤ 0.25 µg/mL
- MIC50 (Streptococcus pyogenes [1]): ≤ 0.25 µg/mL
- MIC90 (Streptococcus pyogenes [1]): ≤ 0.25 µg/mL
- Activity (Streptococcus pyogenes [3]): 0%
- Activity (Streptococcus pyogenes [4]): 100%

Structure (SMILES): CN(C)[C@@H]1C(O)=C(C(N)=O)C(=O)[C@@]2(O)C(O)=C3C(=O)c4c(O)cccc4[C@@](C)(O)[C@H]3C[C@@H]12 [TETRACYCLINE]
- Activity (Streptococcus pyogenes [2]): 0%
- MIC (Streptococcus pyogenes [1]): ≤ 2 µg/mL
- MIC50 (Streptococcus pyogenes [1]): ≤ 2 µg/mL
- MIC90 (Streptococcus pyogenes [1]): ≤ 2 µg/mL
- Activity (Streptococcus pyogenes [3]): 1.5%
- Activity (Streptococcus pyogenes [4]): 98.5%
